Results as given in article PMC10909654 (The Journal of Cell Biology, 2024).
Blank lines part the entries; values can stand above or below the compound they belong to.

Key:
[1] = biological target: T1, FABP7 (Homo sapiens, UniProt O15540); assay: radioligand competition against 3H-cholesterol; type: binding; settings: 1.5 µM cholesterol, pH 7.4, 25 °C, competitive
T1 sequence (O15540 2-132): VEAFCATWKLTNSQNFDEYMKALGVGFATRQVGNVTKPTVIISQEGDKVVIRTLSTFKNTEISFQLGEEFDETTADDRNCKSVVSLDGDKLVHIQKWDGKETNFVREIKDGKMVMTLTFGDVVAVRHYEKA

[2] = biological target: T1, FABP7; assay: radioligand binding, Ni bead pull-down, scintillation counting
[3] = biological target: T2, FABP8 (Homo sapiens, UniProt P02689); assay: as above; settings: 1.5 µM ligand, 150 nM protein; labelled compound; pH 7.4, 25 °C
T2 sequence (P02689 2-132): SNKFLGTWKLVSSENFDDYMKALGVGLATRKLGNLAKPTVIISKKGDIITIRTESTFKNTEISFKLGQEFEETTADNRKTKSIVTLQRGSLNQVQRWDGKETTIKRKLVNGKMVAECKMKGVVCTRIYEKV

[4] = biological target: T3, FABP3 (Homo sapiens, UniProt P05413); assay: as above; settings: 1.5 µM ligand, 150 nM protein; labelled compound; pH 7.4, 25 °C
T3 sequence (P05413 2-133): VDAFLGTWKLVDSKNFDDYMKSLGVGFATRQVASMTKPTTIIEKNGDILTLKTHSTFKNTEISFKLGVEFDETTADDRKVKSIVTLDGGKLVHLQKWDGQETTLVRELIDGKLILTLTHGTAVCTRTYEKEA

[5] = biological target: T3, FABP3; settings: 0.5 µM protein, 5 mol% DHE in donor liposomes, pH 7.2, 25 °C
[6] = biological target: T1, FABP7; settings: 0.5 µM protein, 5 mol% DHE in donor liposomes, pH 7.2, 25 °C
[7] = biological target: T2, FABP8; settings: 0.5 µM protein, 5 mol% DHE in donor liposomes, pH 7.2, 25 °C
[8] = biological target: T3, FABP3; assay: radioligand binding, Ni bead pull-down, scintillation counting; settings: 1.5 µM ligand, 150 nM protein; labelled compound; pH 7.4, 25 °C; remark: listed apart in the source
[9] = biological target: T2, FABP8; assay: as above; settings: 1.5 µM ligand, 150 nM protein; labelled compound; pH 7.4, 25 °C; remark: listed apart in the source

SMILES: CCCCC/C=C\C/C=C\C/C=C\C/C=C\CCCC(=O)O [arachidonic acid]
relative 3H-cholesterol bound ([1]; competitor 7.5 µM): all the tested fatty acids could compete with ^3H-cholesterol for FABP7 binding

Kd [2]: 3.04 ± 0.78 µM
SMILES: CC(C)CCC[C@@H](C)[C@H]1CC[C@H]2[C@@H]3CC=C4C[C@@H](O)CC[C@]4(C)[C@H]3CC[C@]12C [cholesterol]
relative 3H-cholesterol bound [3]: FABP8 bound cholesterol as potently as FABP7
relative 3H-cholesterol bound [4]: FABP3 showed modestly yet significantly reduced binding affinity for cholesterol

SMILES: CC(C)[C@@H](C)/C=C/[C@@H](C)[C@H]1CC[C@H]2C3=CC=C4C[C@@H](O)CC[C@]4(C)C3=CC[C@]12C [dehydroergosterol]
initial transport rate [5]: FABP3 and FABP8 could transfer DHE as efficiently as FABP7
initial transport rate [6]: The purified FABP7 protein promoted DHE transport
initial transport rate [7]: FABP3 and FABP8 could transfer DHE as efficiently as FABP7

SMILES: CC/C=C\C/C=C\C/C=C\C/C=C\C/C=C\C/C=C\CCC(=O)O [docosahexaenoic acid]
relative 3H-cholesterol bound ([1]; competitor 7.5 µM): all the tested fatty acids could compete with ^3H-cholesterol for FABP7 binding

SMILES: CCCCCCCC/C=C\CCCCCCCC(=O)O [oleic acid]
relative 3H-cholesterol bound ([1]; competitor 3.75-15 µM): oleic acid was the most potent ligand and showed a dose-dependent competing effect
relative 3H-oleic acid bound [8]: Both FABP3 and FABP8 could bind oleic acid avidly
relative 3H-oleic acid bound [9]: Both FABP3 and FABP8 could bind oleic acid avidly

SMILES: CCCCCCCCCCCCCCCC(=O)O [palmitic acid]
relative 3H-cholesterol bound ([1]; competitor 7.5 µM): all the tested fatty acids could compete with ^3H-cholesterol for FABP7 binding
